Assay results as given in US10882869B2, “Condensed heterocyclic compounds and pesticides” (NISSAN CHEMICAL CORPORATION, priority 2015, dated 2021).

Columns and labels:
Ctenocephalides felis = experiment: Test on the effect on Ctenocephalides felis (thin film in glass container); format: in vivo; settings: 96 h, application dose 10 μg/cm^2, adults, 4 days after release, 25° C.
Protocol: (§1) 350 μl of the solutions were applied to the bottoms and the side walls of glass containers with an inner wall surface area of 35 cm^2, and acetone was volatilized to prepare thin films of the compounds on the inner walls of the glass containers. Since the inner wall surface area of each glass container was 35 cm^2, the application dose was 10 μg/cm^2.
(§2) To each glass container, five adults (male and female) of Ctenocephalides felis were released, and the containers were covered with lids and placed in an incubator at 25° C. 4 Days after the release of the fleas, dead fleas were counted, and the mortality was calculated by using the same equation as in Test Example 1.

Nilaparvata lugens [1] = experiment: Systemic insecticidal test on Nilaparvata lugens (rice seedling root dip); format: in vivo; settings: 20 ppm solution, rice seedling roots dipped 7 days, 3rd-instar larvae, 6 days after release, 25° C.
Protocol: 7 Days after, the rice seedlings were picked and put in test tubes, and in each tube, five 3rd-instar larvae of Nilaparvata lugens were released, and the tubes were capped with sponge and placed in an incubator at 25° C. 6 Days after the release of the insects, dead insects were counted, and the mortality (%) (the number of dead insects÷the number of released insects×100) was calculated. The test was carried out in duplicate.

Spodoptera litura = experiment: Insecticidal test on Spodoptera litura (cabbage leaves soaked); format: in vivo; settings: 144 h, 500 ppm solution, 3rd-instar larvae, 6 days after, 25° C.
Protocol: (§3) Leaves of cabbage were soaked in the solutions for about 10 seconds. After the soaking, the leaves were dried in air and placed in dishes. In each dish, five 3rd-instar larvae of Spodoptera litura were released, and the dishes were covered with lids and placed in an incubator at 25° C. 6 Days after, dead insects in the dishes were counted, and the mortality was calculated by using the same equation as in Test Example 1. The test was carried out in duplicate.

Bemisia argentifolii = experiment: Insecticidal test on Bemisia argentifolii (kidney bean leaf spray); format: in vivo; settings: 120 h, 500 ppm solution sprayed (2.5 mg/cm^2), adults on kidney bean leaves, 5 days after, 25° C.
Protocol: In styrol cups having an inner diameter of 7 cm, wet filter paper was laid, and kidney bean leaves cut to 3 cm were laid on the paper. […] The leaves were dried in air, and adults of Bemisia argentifolii were released in the cups, and the cups were covered with lids and placed in an incubator at 25° C. 5 Days after, dead insects were counted, and the mortality was calculated by using the same equation as in Test Example 1. The test was carried out in duplicate.

Nilaparvata lugens [2] = experiment: Insecticidal test on Nilaparvata lugens (rice sheaths soaked); format: in vivo; settings: 144 h, 500 ppm solution, 3rd-instar larvae, 6 days after, 25° C.
Protocol: Rice sheaths were soaked in the solutions for about 10 seconds. After the soaking, the rice sheaths were dried in air and put in test tubes. In each tube, five 3rd-instar larvae of Nilaparvata lugens were released, and the tubes were capped with sponge and placed in an incubator at 25° C. 6 Days after, dead insects in the test tubes were counted, and the mortality (%) (the number of dead insects÷the number of released insects×100) was calculated. The test was carried out in duplicate.

Myzus persicae = experiment: Insecticidal test on Myzus persicae (cabbage leaf spray); format: in vivo; settings: 144 h, 500 ppm solution sprayed (2.5 mg/cm^2), apterous adults on cabbage leaves, 6 days after, 25° C.
Protocol: Wet absorbent cotton was laid on glass dishes having an inner diameter of 3 cm, and covered with leaves of cabbage cut into circles of the same diameter, and 4 apterous adults of Myzus persicae were released. […] The solutions were sprayed from a rotary spray tower (2.5 mg/cm^2), and the dishes were covered with lids and placed in an incubator at 25° C. 6 Days after, dead insects were counted, and the mortality was calculated by using the same equation as in Test Example 1. The test was carried out in duplicate.

Plutella xylostella [3] = experiment: Insecticidal test on Plutella xylostella (cabbage leaves soaked); format: in vivo; settings: 144 h, 500 ppm solution, 3rd-instar larvae, 6 days after, 25° C.
Protocol: as §3, with “Plutella xylostella” for “Spodoptera litura”

Plutella xylostella [4] = experiment: Soil irrigation test on Plutella xylostella; format: in vivo; settings: 144 h, 500 ppm solution, 10 ml soil irrigation of cabbage seedlings, leaves picked 5 days after, 3rd-instar larvae, 6 days after
Protocol: The soil around the bases of cabbage seedlings (at the 2.5-leaf stage) planted in plastic cups was irrigated with 10 ml of the solutions. After the irrigation, the cabbage seedlings were placed in a greenhouse. 5 Days after the irrigation, leaves of cabbage were picked and placed in dishes. In each dish, five 3rd-instar larvae of Plutella xylostella were released, and the dishes were covered with lids and placed in an incubator at 25° C. 6 Days after, dead insects in the dishes were counted, and the mortality was calculated by using the same equation as in Test Example 1. The test was carried out in duplicate.

Rhipicephalus sanguineus = experiment: Test on the effect on Rhipicephalus sanguineus (thin film in glass container); format: in vivo; settings: 96 h, application dose 10 μg/cm^2, protonymphs, 4 days after release, 25° C.
Protocol: as §1
as §2, with “protonymphs” for “adults”, “Rhipiceohalus sanguineus” for “Ctenocephalides felis”, “ticks,” for “fleas,”, “ticks” for “fleas”

[5] = test system: Frankliniella occidentalis; experiment: Insecticidal activity on Frankliniella occidentalis (kidney bean leaf spray); format: in vivo; settings: 48 h, 500 ppm solution sprayed (2.5 mg/cm^2), larvae on kidney bean leaves, 2 days after
Protocol: In styrol cups having an inner diameter of 7 cm, wet filter paper was laid, kidney bean leaves cut into a 3 cm square were laid on the paper, and each leaf was inoculated with 20 larvae of Frankliniella occidentalis. […] 2.5 ml of the solutions were sprayed from a rotary spray tower into the styrol cups (2.5 mg/cm^2).
2 Days after, dead insects were counted, and insect damage on kidney bean leaves was examined. The mortality was calculated by using the same equation as in Test Example 1.
The insect damage degree was evaluated as follows. 1: 0 to 20% insect damage, 2: 20 to 50% insect damage, 3: 50 to 70% insect damage, and 4: 70% or higher insect damge. The test was carried out in duplicate.

Row | SMILES | mortality at 10 µg/cm2 (Ctenocephalides felis) [%] | mortality at 20 ppm (Nilaparvata lugens [1]) [%] | mortality at 500 ppm (Spodoptera litura) [%] | mortality at 500 ppm (Bemisia argentifolii) [%] | mortality at 500 ppm (Nilaparvata lugens [2]) [%] | mortality at 500 ppm (Myzus persicae) [%] | mortality at 500 ppm (Plutella xylostella [3]) [%] | pest or weed control at 500 ppm (Plutella xylostella [4]) [%] | melting point [°C] | mortality at 10 µg/cm2 (Rhipicephalus sanguineus) [%] | mortality at 500 ppm [5] [%]
1 | CCS(=O)(=O)c1c(-c2cn3cnc(C(F)(F)F)cc3n2)nc2cc(C(F)(F)F)ccn12 [1-3-001a, 2-[3-(ethylsulfonyl)-7-(trifluoromethyl)imidazo[1,2-a]pyridin-2-yl]-7-(trifluoromethyl)imidazo[1,2-c]pyrimidine] | ≥ 50 | ≥ 90 | ≥ 90 | ≥ 90 | ≥ 90 | ≥ 90 | ≥ 90 | ≥ 90 |  |  | 
2 | CCSc1c(-c2nc3cc(C(F)(F)F)cnc3s2)nc2cc(C(F)(F)F)ccn12 [1-13-001b, 2-[3-(ethylthio)-7-(trifluoromethyl)imidazo[1,2-a]pyridin-2-yl]-6-(trifluoromethyl)thiazolo[5,4-b]pyridine] |  |  |  |  |  |  |  |  | 150 to 160 |  | 
3 | CCSc1c(-c2nc3cc(C(F)(F)F)cnc3n2C)nc2cnc(C(F)(F)F)cn12 [1-1-029b, 2-[3-(ethylthio)-6-(trifluoromethyl)imidazo[1,2-a]pyrazin-2-yl]-3-methyl-6-(trifluoromethyl)-3H-imidazo[4,5-b]pyridine] |  |  |  |  |  |  |  |  | 220 to 222 |  | 
4 | CCSc1c(-c2nc3cc(C(F)(F)F)cnc3n2C)sc2ccc(C(F)(F)F)cc12 [3-1-002b, 2-[3-(ethylthio)-5-(trifluoromethyl)benzo[b]thiophen-2-yl]-3-methyl-6-(trifluoromethyl)-3H-imidazo[4,5-b]pyridine] | ≥ 50 | ≥ 90 | ≥ 90 |  |  |  | ≥ 90 |  |  | ≥ 50 | 
5 | CCSc1c(-c2nc3nc(C(F)(F)F)ccc3n2C)nc2cc(C(F)(F)F)ccn12 [1-7-001b, 2-[3-(ethylthio)-7-(trifluoromethyl)imidazo[1,2-a]pyridin-2-yl]-1-methyl-5-(trifluoromethyl)-1H-imidazo[4,5-b]pyridine] |  |  |  |  |  |  |  |  | 164 to 166 |  | 
6 | CC[S+]([O-])c1c(-c2nc3cc(C(F)(F)F)cnc3n2C)nc2cc(C(F)(F)F)cnn12 (stereo not shown) [1-1-057c, 2-[3-(ethylsulfinyl)-7-(trifluoromethyl)imidazo[1,2-b]pyridazin-2-yl]-3-methyl-6-(trifluoromethyl)-3H-imidazo[4,5-b]pyridine] | ≥ 50 | ≥ 90 | ≥ 90 |  | ≥ 90 | ≥ 90 | ≥ 90 |  |  | ≥ 50 | ≥ 50
7 | CCS(=O)(=O)c1c(-c2nc3cc(C(F)(F)F)cnc3n2C)nc2cc(C(F)(F)F)cnn12 [1-1-057a, 2-[3-(ethylsulfonyl)-7-(trifluoromethyl)imidazo[1,2-b]pyridazin-2-yl]-3-methyl-6-(trifluoromethyl)-3H-imidazo[4,5-b]pyridine] | ≥ 50 | ≥ 90 | ≥ 90 |  | ≥ 90 | ≥ 90 | ≥ 90 | ≥ 90 |  | ≥ 50 | ≥ 50
8 | CCS(=O)(=O)c1c(-c2nc3cc(C(F)(F)F)cnc3n2C)nc2cc(C(F)(F)F)ccn12 [1-1-002a, 2-[3-(ethylsulfonyl)-7-(trifluoromethyl)imidazo[1,2-a]pyridin-2-yl]-3-methyl-6-(trifluoromethyl)-3H-imidazo[4,5-b]pyridine] | ≥ 50 | ≥ 90 | ≥ 90 |  | ≥ 90 | ≥ 90 | ≥ 90 | ≥ 90 |  | ≥ 50 | 
9 | CCSc1c(-c2nc3cc(I)cnc3n2C)nc2cc(C(F)(F)F)ccn12 [1-1-026b, 2-[3-(ethylthio)-7-(trifluoromethyl)imidazo[1,2-a]pyridin-2-yl]-6-iodo-3-methyl-3H-imidazo[4,5-b]pyridine] |  |  |  |  |  |  |  |  | 230 to 233 |  | 
10 | CCS(=O)(=O)c1c(-c2nc3cc(C(F)(F)F)cnc3n2C)sc2ccc(C(F)(F)F)cc12 [3-1-002a, 2-[3-(ethylsulfonyl)-5-(trifluoromethyl)benzo[b]thiophen-2-yl]-3-methyl-6-(trifluoromethyl)-3H-imidazo[4,5-b]pyridine] | ≥ 50 |  | ≥ 90 | ≥ 90 | ≥ 90 | ≥ 90 | ≥ 90 |  |  | ≥ 50 | ≥ 50
11 | CCS(=O)(=O)c1c(-c2nc3cc(C(F)(F)F)ncc3n2C)nc2cc(C(F)(F)F)ccn12 [1-8-005a, 2-[3-(ethylsulfonyl)-7-(trifluoromethyl)imidazo[1,2-a]pyridin-2-yl]-3-methyl-6-(trifluoromethyl)-3H-imidazo[4,5-c]pyridine] | ≥ 50 | ≥ 90 | ≥ 90 |  | ≥ 90 | ≥ 90 | ≥ 90 | ≥ 90 |  | ≥ 50 | 
12 | CCCCC(CC)COC(=O)CCSc1cnc2c(c1)nc(-c1nc3cc(C(F)(F)F)ccn3c1SCC)n2C (stereo not shown) [1-1-028b, 2-ethylhexyl 3-((2-(3-(ethylthio)-7-(trifluoromethyl)imidazo[1,2-a]pyridin-2-yl)-3-methyl-3H-imidazo[4,5-b]pyridin-6-yl)thio)propanoate] |  |  |  |  |  |  |  |  | 94 to 96 |  | 
13 | CCS(=O)(=O)c1c(-c2nc3cc(C(F)(F)F)c[n+]([O-])c3n2C)nc2cc(C(F)(F)F)ccn12 [1-14-001a, 2-[3-(ethylsulfonyl)-7-(trifluoromethyl)imidazo[1,2-a]pyridin-2-yl]-3-methyl-6-(trifluoromethyl)-3H-imidazo[4,5-b]pyridine 4-oxide] | ≥ 50 | ≥ 90 | ≥ 90 | ≥ 90 | ≥ 90 | ≥ 90 | ≥ 90 | ≥ 90 |  |  | 
